Data as given in patent EP4813985A1, “PREPARATION OF QUINAZOLINONE DERIVATIVE AS KINASE INHIBITOR, AND USE THEREOF” (Xizang Haisco Pharmaceutical Co., Ltd., priority 2023, dated 2025).

test system: A375 cells; test: A375 cell proliferation inhibition test; type: cell-based; conditions: Homo sapiens, A-375; Inhibitory activities of compounds on A375 cells, 72 h; read-out: IC50/nM
Description: A375 cells (ATCC, CRL-1619) were cultured in DMEM complete medium (+10% FBS) in a CO2 incubator at 37°C for 48 h. The cells were trypsinised and counted, and then the density was adjusted to 1.67 × 10^4 cells/mL. 90 µL (1500 cells) of cells were inoculated into each well of a 96-well transparent bottom plate, and the plate was transferred to a CO2 incubator and the cells were cultured at 37°C overnight. After the cells were incubated overnight, 10 µL of the diluted compound (final concentration starting from 10 µM, 3-fold dilution, 11 concentrations) was added to each well using a multi-channel pipette. The […] control was a serum-free medium containing DMSO. After mixing evenly, the cells were placed in a CO2 incubator at 37°C for 72 h. After the incubation, the CellCounting-Lite®2.0 kit detection solution (Vazyme, DD1101-03) was taken out and returned to room temperature. 100 µL of CellCounting-Lite2.0 detection solution was added to each well, the plate was sealed with a sealing film, and the plate was placed on a shaker for shaking for 15 min (the whole process should be kept away from light). The Luminescence module of the microplate reader (BMG LRBTECH) was used to detect the fluorescence signal value LUM of each well. The formula Inhibition rate% = ((LUM Solvent−LUM Compound)/(LUM Solvent))∗100% [formula] was used to calculate the inhibition rate of the compound. The Graphpad software log(inhibitor) vs. response -- Variable slope (four parameters) equation was used to perform fitting analysis and calculate the IC50value of the sample. The ordinate of the data is the percentage of inhibition rate, and the abscissa is the logarithm of the sample concentration (Log10).

Row | IC50 [nM] | SMILES
1 | ≤ 10 | Cc1nnc2c3cc(Oc4c(F)ccc(NS(=O)(=O)N5CC6(CCC6)C5)c4C#N)ccc3ncn12 [Compound 1]
2 | ≤ 10 | C=C1CCN(S(=O)(=O)Nc2ccc(F)c(Oc3ccc4ncn(CC(F)F)c(=O)c4c3)c2C#N)C1 [Compound 6]
3 | 10 to 50 | N#Cc1c(NS(=O)(=O)N2CC(=CC(F)F)C2)ccc(F)c1Oc1ccc2ncn(CC(F)F)c(=O)c2c1 [Compound 26]
4 | ≤ 10 | C=C1CN(S(=O)(=O)Nc2ccc(F)c(Oc3ccc4ncc(N5CCOCC5)nc4c3)c2C#N)C1 [Compound 23]
5 | ≤ 10 | C=C1CN(S(=O)(=O)Nc2ccc(F)c(Oc3ccc4ncn(CCF)c(=O)c4c3)c2C#N)C1 [Compound 5]
6 | 10 to 50 | CC=C1CN(S(=O)(=O)Nc2ccc(F)c(Oc3ccc4c(c3)C3=NCCN3C=N4)c2C#N)C1 [Compound 22]
7 | 10 to 50 | CC(C)=C1CN(S(=O)(=O)Nc2ccc(F)c(Oc3ccc4ncn(CC(F)F)c(=O)c4c3)c2C#N)C1 [Compound 4]
8 | ≤ 10 | N#Cc1c(NS(=O)(=O)N2CCC(=CF)C2)ccc(F)c1Oc1ccc2ncn(CC(F)F)c(=O)c2c1 (single isomer, unassigned) [Compound 15]
9 | 10 to 50 | N#Cc1c(NS(=O)(=O)N2CC3(CCC3)C2)ccc(F)c1Oc1ccc2ncc(N3CCOCC3)nc2c1 [Compound 2]
10 | ≤ 10 | CC=C1CN(S(=O)(=O)Nc2ccc(F)c(Oc3ccc4ncn(C)c(=O)c4c3)c2C#N)C1 [Compound 27]

test system: not listed separately; test: Pharmacokinetic test in mice; type: in vivo, ICR mice; conditions: mouse, in vivo, iv, plasma, i.v. (2.5 mg/kg)
Description: 3.1 Experimental animals: Male ICR mice, 20-25 g, 6 mice/compound, purchased from Chengdu Dossy Experimental Animals Co., Ltd.
3.2 Experimental design: On the day of the experiment, the ICR mice were randomly grouped according to their body weights. The animals were fasted with water available for 12-14 h one day before the administration, and were fed 4 h after the administration. Table 3.1 Administration information
vehicle for intravenous administration: 5% DMA + 5% Solutol + 90% Saline; vehicle for intragastric administration: 0.5% MC
Before and after administration, 0.06 mL of blood was taken from the orbit under isoflurane anaesthesia and placed in an EDTAK2 centrifuge tube. The tube was centrifuged at 5000 rpm at 4°C for 10 min, and plasma was collected. The blood sampling time points for both the intravenous administration group and intragastric administration group were 0 min, 5 min, 15 min, 30 min, 1 h, 2 h, 4 h, 7 h, 24 h, and 48 h. Before analysis and detection, all samples were stored at -80°C, and the samples were quantitatively analysed by LC-MS/MS. Table 3.2 Pharmacokinetic parameters of test compounds in plasma of mice

Row | AUC(0-t) [µg·h/mL] | clearance [mL/min/kg] | half-life [h] | SMILES
11 | 148 | 0.282 | 6.77 | C=C1CCN(S(=O)(=O)Nc2ccc(F)c(Oc3ccc4ncn(CC(F)F)c(=O)c4c3)c2C#N)C1 [Compound 6]

same assay, conditions: mouse, in vivo, iv, plasma, i.v. (2.5 mg/kg), read-out: Vdss

Row | Vd [L/kg] | SMILES
12 | 0.118 | C=C1CCN(S(=O)(=O)Nc2ccc(F)c(Oc3ccc4ncn(CC(F)F)c(=O)c4c3)c2C#N)C1 [Compound 6]

same assay, conditions: mouse, in vivo, po, plasma, i.g. (10 mg/kg)

Row | AUC(0-t) [µg·h/mL] | half-life [h] | SMILES
13 | 373 | 4.47 | C=C1CCN(S(=O)(=O)Nc2ccc(F)c(Oc3ccc4ncn(CC(F)F)c(=O)c4c3)c2C#N)C1 [Compound 6]

test system: not listed separately; test: Pharmacokinetic test in mice; type: in vivo, ICR mice; conditions: i.g. (10 mg/kg), relative to Control compound 1

Row | Fold change in brain-blood ratio relative to control compound | SMILES
14 | 24.9 | C=C1CCN(S(=O)(=O)Nc2ccc(F)c(Oc3ccc4ncn(CC(F)F)c(=O)c4c3)c2C#N)C1 [Compound 6]
